Assay results reported in patent US20060241082A1, “Modulating vesicular monoamine transporter trafficking and function: a novel approach for the treatment of parkinson's disease” (priority 2002, published 2006).

Key:
[1] = target: T1, VMAT-2 (Mus musculus, UniProt Q8BRU6); assay: Vesicular [3H]dopamine uptake in striatal vesicles prepared from treated mice; format: in vivo
Procedure: (A. E. Fleckenstein, et al., J. Pharmacol Exp Ther. (1997) 282:834-838). Briefly, fresh tissue was homogenized in ice-cold 0.32 M sucrose. The homogenate was centrifuged (800×g for 12 min; 4° C.), and the supernatant (S1) was carefully removed and centrifuged (22,000×g for 15 min; 4° C.) to obtain the synaptosomal-containing pellet (P2). The resulting P2 were resuspended and homogenized in ice-cold distilled deionized water. Osmolarity was restore by addition 25 mM HEPES and 100 mM potassium tartrate (final concentration; pH 7.5 at 4° C. respectively). […] The resultant S3 removed and MgSO4 added (final concentration of [1 mM] pH 7.5 at 4° C.) and centrifuged at 100,000×g for 45 min. The final P4 were resuspended at 50 mg/ml (original tissue wet weight).

[2] = test system: VMAT-2; assay: VMAT-2 immunoreactivity in striatal subcellular fractions of treated mice (Western blot); format: in vivo, mouse; details: methamphetamine 4 x 10 mg/kg s.c., 1 h
Procedure: Fresh striatal tissue was homogenized in ice-cold 0.32 M sucrose and centrifuged (800×g for 12 min: 4° C.).
VMAT-2 antibody was kindly donated by Dr. John Haycock at the Louisiana State University, New Orleans, La. (Antibody can be purchased from Chemicon, Temecula, Calif. and the reagent # is AB1767). Binding of VMAT-2 antibody was performed using 60 μl of whole synaptosomal, plasmalemmal membrane or vesicle subcellular fractions. Samples were added to 20 μl of loading buffer (final concentration: 2.25% SDS, 18% glycerol, 180 mM Tris Base (pH 6.8), 10% β-mercaptoethanol and bromophenol blue). Approximately 60 μg P2, 40 μg protein P3, and 20 μg protein S3 were loaded per well in a 10% SDS-polyacrylamide gel. Following electrophoresis, samples were transferred to polyvinylidene difluoride hybridization transfer membrane (New England Nuclear (NEN), Boston, Mass.). All subsequent incubation steps were performed at room temperature while shaking. Each membrane was first blocked for 2 h in 100 ml of Tris buffer saline with tween (TBST; 250 mM NaCl, 50 mM tris pH 7.4 and 0.05% tween 20) containing 5% nonfat dry milk. Each membrane was then incubated with anti-VMAT-2 antibody (1:4000 dilution) in 13 ml of TBST with 5% milk for 1 h and then washed 5 times (2×1 min wash: 3×5 min wash) in 70 ml TBST with 5% milk. The membranes then were incubated for 1 h with the goat F (ab′)2 anti-rabbit immunoglobulin antibody (Biosource International, Camarillo, Calif.) at a 1:2000 dilution in TBST with 5% milk. This secondary antibody had been affinity-isolated, preabsorbed with human immunoglobulin, and conjugated with horseradish peroxidase. The membranes were then washed 5 times (2×1 min wash: 3×5 min) with 70 ml TBST, and then developed with Renaissance Western Blot Chemiluminescence's Reagent Pus (NEN, Boston, Mass.), according to manufacturer specification. […] Bands on blots were quantified by densitometry measuring net intensity (the sum of the background-subtracted pixel values in the band area) using Kodak 1D image-analysis software.

[3] = target: T2, plasmalemmal DA transporter (DAT) (Rattus norvegicus, UniProt P23977); details: rats, cited from earlier work
T2 construct: Uptake of [^3H]DA was determined in striatal synaptosomes; from tissue; host or cells: striatum of male Sprague-Dawley rats (synaptosomes, P2)
T2 sequence (P23977 whole entry): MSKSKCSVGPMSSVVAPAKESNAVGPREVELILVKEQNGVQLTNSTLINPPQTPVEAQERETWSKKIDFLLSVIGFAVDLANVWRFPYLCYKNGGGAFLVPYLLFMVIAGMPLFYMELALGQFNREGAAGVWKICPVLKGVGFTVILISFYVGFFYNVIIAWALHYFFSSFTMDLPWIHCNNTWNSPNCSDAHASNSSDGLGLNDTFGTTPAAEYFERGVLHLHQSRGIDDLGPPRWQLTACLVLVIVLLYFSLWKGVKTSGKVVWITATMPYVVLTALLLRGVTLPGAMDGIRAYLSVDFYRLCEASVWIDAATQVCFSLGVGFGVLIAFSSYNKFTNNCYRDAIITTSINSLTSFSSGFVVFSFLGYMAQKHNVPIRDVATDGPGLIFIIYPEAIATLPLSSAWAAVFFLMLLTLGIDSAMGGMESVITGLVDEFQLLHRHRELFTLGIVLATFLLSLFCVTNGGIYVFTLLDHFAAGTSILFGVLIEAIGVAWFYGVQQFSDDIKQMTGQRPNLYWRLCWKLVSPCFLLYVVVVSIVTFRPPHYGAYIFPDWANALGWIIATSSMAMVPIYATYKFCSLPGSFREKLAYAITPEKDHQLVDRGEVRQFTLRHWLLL

[4] = target: T1, VMAT-2; assay: [3H]DHTBZ binding in striatal vesicles prepared from treated mice; details: methamphetamine 4 x 10 mg/kg s.c., 2-h intervals, 1 and 24 h after treatment
Procedure: Binding of [^3H]DHTBZ was performed essentially as described by Brown et al. (2001a and 2001b) Briefly, 200 μl of the synaptic vesicles preparation (˜6 μg of protein) was incubated in wash buffer in the presence of [^3H]DHTBZ (2 nM final concentration) for 10 min at 25° C. The reaction was terminated by addition of 1 ml cold wash buffer and rapid filtration through Whatman GF/P filters soaked in 0.5% polyethylenimine. Filters were washed three times with ice-cold wash buffer. Nonspecific binding was determined by co incubation with 20 μM TBZ. All protein concentrations were determined by Bio-Rad protein assay (Bio-Rad Inc.)

[5] = target: T3, VMAT-2 (Rattus norvegicus, UniProt Q01827); design: purified striatal vesicles prepared from treated rats; from tissue; host or cells: striatum of male Sprague-Dawley rats (synaptic vesicles; P2, P3, S3 fractions); details: rats, multiple METH; Brown et al., 2000; cited from earlier work
T3 sequence (Q01827 whole entry): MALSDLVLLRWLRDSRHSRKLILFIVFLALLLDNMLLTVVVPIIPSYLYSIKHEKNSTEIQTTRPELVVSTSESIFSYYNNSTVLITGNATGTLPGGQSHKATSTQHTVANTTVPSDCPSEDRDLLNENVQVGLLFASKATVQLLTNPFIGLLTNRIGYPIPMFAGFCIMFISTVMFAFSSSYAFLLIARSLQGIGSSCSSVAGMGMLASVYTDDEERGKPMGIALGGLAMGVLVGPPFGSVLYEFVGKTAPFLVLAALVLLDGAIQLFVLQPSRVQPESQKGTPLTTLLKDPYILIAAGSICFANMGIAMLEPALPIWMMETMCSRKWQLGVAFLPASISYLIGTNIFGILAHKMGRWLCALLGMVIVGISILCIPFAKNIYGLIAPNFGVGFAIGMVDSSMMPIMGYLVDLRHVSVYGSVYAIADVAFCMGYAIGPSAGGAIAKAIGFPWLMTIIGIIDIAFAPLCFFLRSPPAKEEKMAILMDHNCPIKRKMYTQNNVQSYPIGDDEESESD

[6] = Locomotor activity and rearing of treated rats; format: in vivo, rat; details: MPD 5-40 mg/kg s.c.
[7] = target: T3, VMAT-2; assay: Direct in vitro application of MPD to vesicular [3H]DA uptake; format: biochemical; design: purified striatal vesicles prepared from treated rats; from tissue; host or cells: striatum of male Sprague-Dawley rats (synaptic vesicles; P2, P3, S3 fractions)

T1 sequence (Q8BRU6 whole entry): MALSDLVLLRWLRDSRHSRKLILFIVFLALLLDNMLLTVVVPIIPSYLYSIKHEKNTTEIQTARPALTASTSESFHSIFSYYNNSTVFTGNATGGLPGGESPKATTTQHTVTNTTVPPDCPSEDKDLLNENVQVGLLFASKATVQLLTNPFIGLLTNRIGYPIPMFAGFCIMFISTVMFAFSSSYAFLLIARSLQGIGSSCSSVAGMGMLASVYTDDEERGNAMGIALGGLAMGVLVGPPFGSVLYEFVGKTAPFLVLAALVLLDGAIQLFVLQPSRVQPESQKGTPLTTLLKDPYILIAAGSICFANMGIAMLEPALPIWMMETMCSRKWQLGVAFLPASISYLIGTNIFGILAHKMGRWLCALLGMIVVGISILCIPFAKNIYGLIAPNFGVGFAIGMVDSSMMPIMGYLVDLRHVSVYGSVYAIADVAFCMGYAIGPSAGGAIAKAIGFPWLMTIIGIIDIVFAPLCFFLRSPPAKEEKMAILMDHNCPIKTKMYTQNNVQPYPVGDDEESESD

| Compound | vesicular [3H]dopamine uptake ([1]; methamphetamine 4 x 10 mg/kg s.c., 2-h intervals, 1 and 24 h after treatment) | VMAT-2 immunoreactivity in the membrane-associated fraction [2] | VMAT-2 immunoreactivity in the vesicle preparation [2] | total VMAT-2 immunoreactivity in synaptosomes [2] | magnitude of the decrease in plasmalemmal DA uptake ([3]; METH 4 x 10 mg/kg s.c., 2-h intervals, 1 h, Kokoshka 1998, Fleckenstein 1999, Metzger 2000) | recovery of plasmalemmal DA uptake after 24 h ([3]; multiple METH, Kokoshka et al., 1998) | [3H]DHTBZ binding [4] | deficit in vesicular DA uptake [5] | vesicular dopamine uptake after a single injection ([1]; methylphenidate 10 mg/kg s.c. or cocaine 30 mg/kg i.p., vesicles prepared 1 h after treatment) | locomotor activity and rearing as compared with controls [6] | IC50 ([7]; in vitro direct application, n=3) [µM] | vesicular [3H]DA uptake on direct application of MPD ([7]; in vitro, concentrations of 1 nM to 1 μM) |
| --- | --- | --- | --- | --- | --- | --- | --- | --- | --- | --- | --- | --- |
| CN[C@@H](C)Cc1ccccc1 (racemic) [METH, methamphetamine] | rapidly decreased | increasing | decreased | little effect | 70-80% | ≈ 60 % of control values | rapidly decreased | ≈ 65% |  |  |  |  |
| COC(=O)C(c1ccccc1)C1CCCCN1 (stereo not drawn) [MPD, methylphenidate] |  |  |  |  |  |  |  |  | increased | increased | 19.8 ± 4 | without effect |
